Results as given in patent publication US11389415B2, “Methods of regulating cannabinoid receptor activity-related disorders and diseases” (The United States of America as represented by the …, priority 2012, dated 2022).
Read-outs that look alike come from different tables or passages of the source.

Assays:
U87 = assay: tumor cell growth, U87; conditions: Homo sapiens, U-87 MG, read-out: IC50 (uM), U87 (CNS)
MCF7 = assay: tumor cell growth, MCF7; conditions: Homo sapiens, MCF7, read-out: IC50 (uM), MCF7 (Breast C)
A549 = assay: tumor cell growth, A549; conditions: Homo sapiens, A549, read-out: IC50 (uM), A549 (NSCLC)
U251 = assay: tumor cell growth, U251; conditions: Homo sapiens, U-251, read-out: IC50 (uM), U251 (CNS)
A172 = assay: tumor cell growth, A172; conditions: Homo sapiens, A 172, read-out: IC50 (uM), A172 (CNS)
U118 = assay: tumor cell growth, U118; conditions: read-out: IC50 (uM), U118 (CNS)
HEPG2 = assay: tumor cell growth, HEPG2; conditions: Homo sapiens, HepG2, read-out: IC50 (uM), HEPG2 (Liver C)
GL261 = assay: tumor cell growth, GL261; conditions: Mus musculus, GL261, read-out: IC50 (uM), GL261 (CNS)
LN-18 = assay: tumor cell growth, LN-18; conditions: Homo sapiens, LN-18, read-out: IC50 (uM), LN-18 (CNS)
PANC-1 = assay: tumor cell growth, PANC-1; conditions: Homo sapiens, PANC-1, read-out: IC50 (uM), PANC-1 (Pancreatic C)
Du-145 = assay: tumor cell growth, Du-145; conditions: Homo sapiens, DU-145, read-out: IC50 (uM), Du-145 (Prostate C)
MDAMB231 = assay: tumor cell growth, MDAMB231; conditions: Homo sapiens, MDA-MB-231, read-out: IC50 (uM), MDAMB231 (Breast C)
PC3 [1] = assay: tumor cell growth (CTG), PC3; conditions: Homo sapiens
HT29 [2] = assay: tumor cell growth (CTG), HT29; conditions: Homo sapiens
HT29 [3] = assay: Thymidine (Thy) 96 well, HT29; conditions: Homo sapiens, read-out: IC50 (uM), HT29 (Colon Cancer)
HEP3B [4] = assay: tumor cell growth (CTG), HEP3B; conditions: Homo sapiens, Hep3B
HCT116 [5] = assay: tumor cell growth (CTG), HCT116; conditions: Homo sapiens
HCT116 [6] = assay: Thymidine (Thy) 96 well, HCT116; conditions: Homo sapiens, read-out: IC50 (uM), HCT116 (Colon Cancer)
NCIH460 = assay: Thymidine (Thy) 96 well, NCIH460; conditions: Homo sapiens, read-out: IC50 (uM), NCIH460 (NSCLC)
H460 = assay: tumor cell growth (CTG), H460 / NCIH460; conditions: Homo sapiens
LN-229 = assay: tumor cell growth (CTG), LN-229 / LN229; conditions: Homo sapiens
PC3 [7] = assay: [3H]-Thymidine incorporation in 96-well plates (Thy), PC3; conditions: Homo sapiens, read-out: IC50 (uM), PC3 (Prostrate Cancer)
HEP3B [8] = assay: [3H]-Thymidine incorporation in 96-well plates (Thy), HEP3B; conditions: Homo sapiens, Hep3B, read-out: IC50 (uM), HEP3B (Liver Cancer)
LN229 = assay: [3H]-Thymidine incorporation in 96-well plates (Thy), LN229; conditions: Homo sapiens, read-out: IC50 (uM), LN229 (CNS Cancer)

COc1cccc2c1C(=O)c1c(O)c3c(c(O)c1C2=O)C[C@@](O)(C(=O)CO)C[C@@H]3O[C@H]1C[C@H](N)[C@H](O)[C@H](C)O1 [Doxorubicin, reference compound]
IC50 (U87): 0.21 µM
IC50 (MCF7): 0.3 µM
IC50 (A549): 0.11 µM
IC50 (U251): 0.17 µM
IC50 (A172): 0.46 µM
IC50 (U118): 0.81 µM
IC50 (HEPG2): 0.28 µM
IC50 (GL261): 0.17 µM
IC50 (LN-18): 0.53 µM
IC50 (PANC-1): 2.97 µM
IC50 (Du-145): 0.38 µM
IC50 (MDAMB231): 0.68 µM
IC50 (PC3 [1]; PC-3, 24 h, read-out: IC50 (uM), PC3 (Prostrate Cancer)): 3.02 µM
IC50 (PC3 [1]; PC-3, 48 h, read-out: IC50 (uM), PC3 (Prostrate Cancer)): 0.93 µM
IC50 (PC3 [1]; PC-3, 72 h, read-out: IC50 (uM), PC3 (Prostrate Cancer)): 0.91 µM
IC50 (PC3 [1]; PC-3, read-out: IC50 (uM), PC3 (Prostate C)): 0.91 µM
IC50 (HT29 [2]; HT-29, 48 h, read-out: IC50 (uM), HT29 (Colon Cancer)): 0.52 µM
IC50 (HT29 [2]; HT-29, 72 h, read-out: IC50 (uM), HT29 (Colon Cancer)): 0.26 µM
IC50 (HT29 [2]; HT-29, read-out: IC50 (uM), HT29 (Colon C)): 0.26 µM
IC50 (HT29 [3]; HT-29, 24 h): 0.11 µM
IC50 (HT29 [3]; HT-29, 48 h): 0.12 µM
IC50 (HEP3B [4]; 48 h, read-out: IC50 (uM), HEP3B (Liver Cancer), 96 well CTG 2 days treatment): 0.52 µM
IC50 (HEP3B [4]; 72 h, read-out: IC50 (uM), HEP3B (Liver Cancer), 384well CTG 3 days treatment −1): 0.43 µM
IC50 (HEP3B [4]; 72 h, read-out: IC50 (uM), HEP3B (Liver Cancer), 384well CTG 3 days treatment −2): 0.35 µM
IC50 (HEP3B [4]; read-out: IC50 (uM), HEP3B (Liver C), Table 6): 0.43 µM
IC50 (HCT116 [5]; HCT-116, 24 h, read-out: IC50 (uM), HCT116 (Colon Cancer), 96 well CTG 1 day treatment): 0.21 µM
IC50 (HCT116 [5]; HCT-116, 48 h, read-out: IC50 (uM), HCT116 (Colon Cancer), 96 well CTG 2 days treatment): 0.23 µM
IC50 (HCT116 [5]; HCT-116, 72 h, read-out: IC50 (uM), HCT116 (Colon Cancer), 384well CTG 3 days treatment −1): 0.06 µM
IC50 (HCT116 [5]; HCT-116, 72 h, read-out: IC50 (uM), HCT116 (Colon Cancer), 384well CTG 3 days treatment −2): 0.21 µM
IC50 (HCT116 [5]; HCT-116, read-out: IC50 (uM), HCT116 (Colon C), Table 6): 0.06 µM
IC50 (HCT116 [6]; HCT-116, 24 h): 0.12 µM
IC50 (HCT116 [6]; HCT-116, 48 h): 0.14 µM
IC50 (NCIH460; NCI-H460, 24 h): 0.09 µM
IC50 (NCIH460; NCI-H460, 48 h): 0.03 µM
IC50 (H460; NCI-H460, 24 h, read-out: IC50 (uM), NCIH460 (NSCLC), 96 well CTG 1 day treatment): 0.31 µM
IC50 (H460; NCI-H460, 48 h, read-out: IC50 (uM), NCIH460 (NSCLC), 96 well CTG 2 days treatment): 0.12 µM
IC50 (H460; NCI-H460, 72 h, read-out: IC50 (uM), NCIH460 (NSCLC), 384well CTG 3 days treatment −1): 0.02 µM
IC50 (H460; NCI-H460, 72 h, read-out: IC50 (uM), NCIH460 (NSCLC), 384well CTG 3 days treatment −2): 0.11 µM
IC50 (H460; NCI-H460, read-out: IC50 (uM), H460 (NSCLC), Table 6): 0.02 µM
IC50 (LN-229; LN-229, 48 h, read-out: IC50 (uM), LN229 (CNS Cancer)): 1.7 µM
IC50 (LN-229; LN-229, 72 h, read-out: IC50 (uM), LN229 (CNS Cancer)): 0.61 µM
IC50 (LN-229; LN-229, read-out: IC50 (uM), LN-229 (CNS)): 0.61 µM
IC50 (PC3 [7]; PC-3, 24 h): 0.04 µM
IC50 (PC3 [7]; PC-3, 48 h): 0.28 µM
IC50 (HEP3B [8]; 24 h): 0.04 µM
IC50 (HEP3B [8]; 48 h): 0.02 µM
IC50 (LN229; LN-229, 24 h): 0.1 µM
IC50 (LN229; LN-229, 48 h): 0.07 µM
